{"source": "patent US20090061452A1", "about": "“Polymorphisms in the human genes for OCT 1 and their use in diagnostic and therapeutic applications” (Epidauros Biotechnologie AG, priority 2002, published 2009)", "key": {"OCT1 mutant Phe160Leu": {"target": "T1, OCT1 mutant Phe160Leu (Homo sapiens, UniProt O15245)", "T1 construct": "expressed in transfected cells; host or cells: Xenopus laevis oocytes injected with cRNA transcribed from the pOG1 vector", "T1 sequence (O15245 1-554)": "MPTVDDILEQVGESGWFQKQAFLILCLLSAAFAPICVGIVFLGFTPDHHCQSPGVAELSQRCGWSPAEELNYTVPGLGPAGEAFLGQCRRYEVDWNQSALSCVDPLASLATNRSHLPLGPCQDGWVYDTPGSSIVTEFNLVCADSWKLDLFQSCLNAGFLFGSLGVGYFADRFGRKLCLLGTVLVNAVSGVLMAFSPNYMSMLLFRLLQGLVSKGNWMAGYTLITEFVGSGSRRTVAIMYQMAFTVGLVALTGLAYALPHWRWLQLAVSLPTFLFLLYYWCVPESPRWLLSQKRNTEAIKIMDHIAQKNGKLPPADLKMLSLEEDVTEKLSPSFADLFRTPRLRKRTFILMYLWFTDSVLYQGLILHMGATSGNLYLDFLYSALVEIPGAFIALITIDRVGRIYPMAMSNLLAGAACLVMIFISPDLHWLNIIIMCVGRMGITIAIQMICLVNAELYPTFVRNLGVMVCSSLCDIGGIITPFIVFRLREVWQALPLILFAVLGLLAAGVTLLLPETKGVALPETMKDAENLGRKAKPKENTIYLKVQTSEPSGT", "test": "Cyanine863-inhibitable uptake in Xenopus oocytes expressing OCT1 mutant Phe160Leu", "assay_type": "cell-based"}, "OCT1 mutant Gly401Ser": {"target": "T2, OCT1 mutant Gly401Ser (Homo sapiens, UniProt O15245, G401S)", "T2 sequence (O15245 1-554 G401S)": "T1 sequence (O15245 1-554) with G401S", "test": "Cyanine863-inhibitable uptake in Xenopus oocytes expressing OCT1 mutant Gly401Ser", "experimental": "(§1) OCT1 wt and OCT1 mutants were expressed in Xenopus oocytes and analyzed side-by-side. Cyanine863-inhibitable uptake of radioactively labeled organic cations was measured over 30 min. a) Uptake of 0.1 μM [^3H]MPP by different mutants in comparison to OCT1. […] In different batches of oocytes, the cyanine-863-inhibited uptake of 0.1 μM [^3H]MPP expressed by OCT1 wt varied between 0.9 and 1.8 μmol×oocyte^−1×30 min^−1. […] MPP uptake was measured at 9 different MPP concentrations and K0.5 values were determined by fitting the Hill equation to the data. […] Mean values±SD of three experiments are presented. *P<0.05, **P<0.01, ***P<0.001.\n(§2) After defolliculation, the oocytes were injected with 10 ng/oocycte of the respective cRNAs. […] Oocytes were incubated for 30 min with the indicated substrate concentrations in the absence or presence of 100 μM of the inhibitor cyanine863. The mutants were compared with the OCT1 wt in side-by-side experiments using oocytes from the same batch (Arndt, Am J. Physiol. Renal Physiol. 281 (2001), F454-468). Each data point corresponded to 8-10 oocytes. K0.5 values were estimated by fitting the Hill equation to the data. Mean values±SD are presented. Significance of differences was tested by unpaired Student t-tests."}, "OCT1 mutant Met420del": {"target": "T3, OCT1 mutant Met420del (Homo sapiens, UniProt O15245, DEL420-420)", "T3 construct": "expressed in transfected cells; host or cells: Xenopus laevis oocytes injected with cRNA transcribed from the pOG1 vector", "T3 sequence (O15245 with tags, fused parts or gaps DEL420-420)": "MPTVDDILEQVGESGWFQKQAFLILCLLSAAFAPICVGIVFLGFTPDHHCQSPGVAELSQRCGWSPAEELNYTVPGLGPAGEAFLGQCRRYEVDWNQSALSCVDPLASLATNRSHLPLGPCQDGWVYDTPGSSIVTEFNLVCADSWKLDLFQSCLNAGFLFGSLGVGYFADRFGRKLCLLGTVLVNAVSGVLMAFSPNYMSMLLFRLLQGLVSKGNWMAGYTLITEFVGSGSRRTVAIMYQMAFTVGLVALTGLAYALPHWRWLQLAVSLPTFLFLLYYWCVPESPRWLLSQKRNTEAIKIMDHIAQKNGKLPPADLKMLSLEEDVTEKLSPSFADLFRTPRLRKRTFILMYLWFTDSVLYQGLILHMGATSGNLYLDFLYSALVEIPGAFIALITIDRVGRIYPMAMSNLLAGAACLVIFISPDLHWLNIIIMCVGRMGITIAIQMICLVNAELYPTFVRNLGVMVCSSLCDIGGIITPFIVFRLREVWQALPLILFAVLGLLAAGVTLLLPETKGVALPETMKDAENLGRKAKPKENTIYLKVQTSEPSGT", "test": "Cyanine863-inhibitable uptake in Xenopus oocytes expressing OCT1 mutant Met420del", "assay_type": "cell-based"}, "OCT1 mutant Arg61Cys": {"target": "T4, OCT1 mutant Arg61Cys (Homo sapiens, UniProt O15245, R61C)", "T4 construct": "expressed in transfected cells; host or cells: Xenopus laevis oocytes injected with cRNA transcribed from the pOG1 vector", "T4 sequence (O15245 1-554 R61C)": "T1 sequence (O15245 1-554) with R61C", "test": "Cyanine863-inhibitable uptake in Xenopus oocytes expressing OCT1 mutant Arg61Cys", "assay_type": "cell-based", "conditions": "0.1 μM [3H]MPP, 30 min"}, "OCT1 mutant Cys88Arg": {"target": "T5, OCT1 mutant Cys88Arg (Homo sapiens, UniProt O15245, C88R)", "T5 sequence (O15245 1-554 C88R)": "T1 sequence (O15245 1-554) with C88R", "test": "Cyanine863-inhibitable uptake in Xenopus oocytes expressing OCT1 mutant Cys88Arg", "experimental": "as §1, §2"}, "[1]": {"conditions": "Hill equation fit, 9 MPP concentrations"}}, "note": "Substitutions are numbered along the chain they refer to. “Also recorded” adds a separate entry of the source.", "data": [{"compound": "C[n+]1ccc(-c2ccccc2)cc1", "note": "[MPP, 1-methyl-4-phenylpyridinium]", "values": [{"measurement": "uptake compared to OCT1 wt", "setting": "OCT1 mutant Phe160Leu; 0.1 μM [3H]MPP, 30 min", "value": "not significantly different from OCT1 wt"}, {"measurement": "half maximal concentration for substrate activation (K0.5) compared to wild-type", "setting": "OCT1 mutant Phe160Leu; [1]", "value": "similar; also recorded: identical to wild-type"}, {"measurement": "maximal expressed transport rates compared to wild-type", "setting": "OCT1 mutant Phe160Leu; data not shown", "value": "identical to wild-type"}, {"measurement": "reduced Vmax value compared to OCT1 wt", "setting": "OCT1 mutant Phe160Leu; n=3", "value": "32±16", "unit": "%"}, {"measurement": "uptake reduced by (compared to OCT1 wt)", "setting": "OCT1 mutant Gly401Ser; 0.1 μM [3H]MPP, 30 min", "value": "more than 98%"}, {"measurement": "uptake compared to OCT1 wt", "setting": "OCT1 mutant Met420del; 0.1 μM [3H]MPP, 30 min", "value": "not significantly different from OCT1 wt"}, {"measurement": "half maximal concentration for substrate activation (K0.5) compared to wild-type", "setting": "OCT1 mutant Met420del; [1]", "value": "identical to wild-type"}, {"measurement": "maximal expressed transport rates compared to wild-type", "setting": "OCT1 mutant Met420del; data not shown", "value": "identical to wild-type"}, {"measurement": "uptake reduced by (compared to OCT1 wt)", "setting": "OCT1 mutant Arg61Cys", "value": 70, "unit": "%"}, {"measurement": "uptake reduced by (compared to OCT1 wt)", "setting": "OCT1 mutant Cys88Arg; 0.1 μM [3H]MPP, 30 min", "value": "more than 98%"}]}, {"compound": "NCCc1c[nH]c2ccc(O)cc12", "note": "[serotonin]", "values": [{"measurement": "uptake compared to wt, relative to reduction of MPP uptake", "setting": "OCT1 mutant Gly401Ser; 1 μM [3H]serotonin", "value": "significantly less reduced"}, {"measurement": "uptake compared to wt, relative to reduction of MPP uptake", "setting": "OCT1 mutant Cys88Arg; 1 μM [3H]serotonin", "value": "significantly less reduced"}]}]}
